Test results as given in paper PMC4710608 (Environmental Health Perspectives, 2015).

Key:
[1] = biological target: T1, PPARγ (Mus musculus, UniProt P37238); experiment: GAL4-UAS luciferase transactivation assay in HEK293T/[…] cells; type: cell-based
T1 construct: gene Pparg
T1 sequence (P37238 193-505): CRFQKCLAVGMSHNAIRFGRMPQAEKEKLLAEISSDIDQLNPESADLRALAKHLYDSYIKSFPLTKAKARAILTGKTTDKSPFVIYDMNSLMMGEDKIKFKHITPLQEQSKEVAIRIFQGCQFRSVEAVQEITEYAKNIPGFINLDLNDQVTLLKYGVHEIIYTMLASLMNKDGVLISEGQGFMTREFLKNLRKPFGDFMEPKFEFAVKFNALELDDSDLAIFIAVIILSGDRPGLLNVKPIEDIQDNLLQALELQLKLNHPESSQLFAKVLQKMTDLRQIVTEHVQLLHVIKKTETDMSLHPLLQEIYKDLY

[2] = biological target: T2, PPARγ (Homo sapiens, UniProt P37231); experiment: competitive TR-FRET binding assay (terbium donor, Fluormone Green tracer displacement)
T2 construct: gene PPARG
T2 sequence (P37231 231-505 limits assumed): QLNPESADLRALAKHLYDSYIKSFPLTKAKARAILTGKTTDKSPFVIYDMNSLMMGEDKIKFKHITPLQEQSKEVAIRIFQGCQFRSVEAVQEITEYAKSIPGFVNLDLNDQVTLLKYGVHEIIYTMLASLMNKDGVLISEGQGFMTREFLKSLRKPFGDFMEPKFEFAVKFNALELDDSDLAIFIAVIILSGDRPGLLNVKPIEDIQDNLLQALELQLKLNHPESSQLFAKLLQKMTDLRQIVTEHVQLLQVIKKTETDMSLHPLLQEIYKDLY

Kd [2]: 1380 nM
Structure (SMILES): CCCCC(CC)COC(=O)CC(C(=O)OCC(CC)CCCC)S(=O)(=O)O (centres unmarked) [DOSS]
GAL4-UAS luciferase transactivation assay in HEK293T/17 cells [1]: DOSS alone elicited dose-dependent increases in PPARγ-driven luciferase expression in the low ppm range
